Holding throughout (type): cell-based, human
In data set [1] the test system is A549 cells. Put plainly: 10-14 day Clonagenicity Assay (MTT), A549. The conditions noted are these: for percentage survival relative to the missense, n = 1: independent experiment n = 1, dilution point of maximum toxicity; for percentage survival relative to the missense, n = 3: independent experiment n = 3, dilution point of maximum toxicity; for percentage survival relative to the missense, n = 2: independent experiment n = 2, dilution point of maximum toxicity. In short, it runs like this:
(§1)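 Read-out is MTT conversion 10-14 days after siRNA transfection, expressed as average percentage viability relative to missense oligomer at the seed density of maximum toxicity. Oligomers were applied at 2 μg/ml for 4 hours to cells plated over six 1-in-2 dilutions. Cytotoxicity required reduced viability at two or more seed densities.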

Data set [2] relates to A498 cells. In words: 10-14 day Clonagenicity Assay (MTT), A498. The conditions noted are these: for percentage survival relative to the missense, n = 1: independent experiment n = 1, dilution point of maximum toxicity; for percentage survival relative to the missense, n = 3: independent experiment n = 3, dilution point of maximum toxicity. A digest of the protocol: as §1
The subject of data set [3] is U251 cells. In words: 10-14 day Clonagenicity Assay (MTT), U251. Conditions: U251, clonagenicity assay, dilution point of maximum toxicity; for percentage survival relative to the missense, n = 1: independent experiment n = 1; for percentage survival relative to the missense, n = 2: independent experiment n = 2; for percentage survival relative to the missense, n = 3: independent experiment n = 3. In short, it runs like this: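 U251 cells were seeded in a 96-well plate, left overnight to adhere at 37° C. in humidified 5% CO2, and serially diluted 1 in 2 from Column 1 to 6. They were transfected for 4 hrs with siRNA oligomers at 2 μg/ml, given fresh medium, changed again at 24 hrs, then incubated 10-14 days with weekly renewal. MTT conversion measured cell number; survival was expressed versus missense control.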

Data set [4] deals with DU145 cells. Put plainly: 10-14 day Clonagenicity Assay (MTT), DU145. The conditions noted are these: for percentage survival relative to the missense, n = 2: independent experiment n = 2, dilution point of maximum toxicity; for percentage survival relative to the missense, n = 3: independent experiment n = 3, dilution point of maximum toxicity; for percentage survival relative to the missense, n = 1: independent experiment n = 1, dilution point of maximum toxicity. A digest of the protocol: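 Seeded at cell-line-optimised densities, 1:2 serial dilution over six columns; siRNA oligos transfected at 2 μg/ml for 4 h, media changed overnight and at 24 h, then grown 10-14 days at 37° C before MTT read-out. Value is mean % viability vs missense control at the maximum-toxicity dilution, 3 experiments.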

The subject of data set [5] is SKOV3 cells. Put plainly: 10-14 day Clonagenicity Assay (MTT), SKOV3. Conditions: for percentage survival relative to the missense, n = 1: independent experiment n = 1, dilution point of maximum toxicity; for percentage survival relative to the missense, n = 2: independent experiment n = 2, dilution point of maximum toxicity; for percentage survival relative to the missense, n = 3: independent experiment n = 3, dilution point of maximum toxicity. A digest of the protocol:
as §1

Consider “siRNA MAK: sense GAAGCCAAGCAUGGGUGUUtt, antisense AACACCCAUGCUUGGCUUCtt (sense GAAGCCAAGCAUGGGUGUUTT; antisense AACACCCAUGCUUGGCUUCTT; chemistry not given here)”, for which the “percentage survival relative to the missense, n = 1” value worked out at 51.6% in data set [1], 19.4% in data set [2], 11.5% in data set [3] and 25.6% in data set [5]. Also, the “percentage survival relative to the missense, n = 3” value in data set [1] turned out to be 42.8%; in data set [2] it was 51.6%; in data set [3], 58.7%; in data set [4], 55.4%. In addition, the “percentage survival relative to the missense, n = 2” value in data set [3] was 49.1%; in data set [4], 57.2%; in data set [5], 40.3%.
On to “siRNA MAPKK5: sense GAGGACAGGUUAAGCUGUGtt, antisense CACAGCUUAACCUGUCCUCtt (sense GAGGACAGGUUAAGCUGUGTT; antisense CACAGCUUAACCUGUCCUCTT; chemistry not given here)”, for which the “percentage survival relative to the missense, n = 1” value is 48.5% in data set [1], 10.2% in data set [2], 44.8% in data set [3] and 18.5% in data set [5]. In addition, the “percentage survival relative to the missense, n = 3” value in data set [2] is recorded as 6.9%; in data set [3], 12.4%; in data set [4], 13.6%; in data set [5] it was 53.7%. Also, in data set [3], the “percentage survival relative to the missense, n = 2” value is reported as 51.4%.
Regarding “siRNA MKNK: sense UACAUGGCCCCUGAGGUAGtt, antisense CUACCUCAGGGGCCAUGUAtt (sense UACAUGGCCCCUGAGGUAGTT; antisense CUACCUCAGGGGCCAUGUATT; chemistry not given here)”, the “percentage survival relative to the missense, n = 1” value was 11.5% in data set [1], 15.4% in data set [2], 33.6% in data set [3] and 14% in data set [5]. Further, the “percentage survival relative to the missense, n = 2” value in data set [1] worked out at 67.9%; in data set [3], 59.5%. The “percentage survival relative to the missense, n = 3” value in data set [1] turned out to be 23.3%; in data set [2], 2.7%; in data set [3], 69%; in data set [4], 33.9%; in data set [5] it was 34.3%.
As to “siRNA NTKL: siRNA duplex, sense UGUGGAGCUGAUGAAGCACtt, antisense GUGCUUCAUCAGCUCCACAtt; same in Tables 9 and 11 (sense UGUGGAGCUGAUGAAGCACTT; antisense GUGCUUCAUCAGCUCCACATT; chemistry not given here)”, the “percentage survival relative to the missense, n = 1” value in data set [1] stood at 18.9%; in data set [2] it was 12.3%; in data set [3], 9.5%; in data set [4], 27.8%; in data set [5] it was 6.2%. The “percentage survival relative to the missense, n = 2” value was 45.3% in data set [1], 20.9% in data set [3], 35.1% in data set [4] and 18.8% in data set [5]. Further, the “percentage survival relative to the missense, n = 3” value in data set [1] stood at 28.1%; in data set [2], 7.2%; in data set [3], 17.1%; in data set [4], 25.4%; in data set [5], 14.9%.
For the substance “siRNA P14KB: sense GCUACGGAAGCUGAUCCUCtt, antisense GAGGAUCAGCUUCCGUAGCtt (sense GCUACGGAAGCUGAUCCUCTT; antisense GAGGAUCAGCUUCCGUAGCTT; chemistry not given here)”, the “percentage survival relative to the missense, n = 3” value in data set [1] was found to be 63.4%; in data set [2], 15.1%; in data set [3], 28.3%; in data set [4] it was 26.1%; in data set [5] it was 44.8%. Further, the results for the “percentage survival relative to the missense, n = 1” value in data set [2], in data set [3] and in data set [5] were 19.3%, 12.3% and 12.3%, respectively. The “percentage survival relative to the missense, n = 2” value is listed as 65% in data set [3] and 56% in data set [5].
As to “siRNA ROCK: siRNA duplex, sense UACAUGCCUGGUGGAGAUCtt, antisense GAUCUCCACCAGGCAUGUAtt; same in Tables 9 and 11 (sense UACAUGCCUGGUGGAGAUCTT; antisense GAUCUCCACCAGGCAUGUATT; chemistry not given here)”, the “percentage survival relative to the missense, n = 1” value in data set [1] was 16.3%; in data set [2], 14.3%; in data set [3], 13.8%; in data set [4], 45.6%; in data set [5], 11.7%. Besides, the “percentage survival relative to the missense, n = 2” value in data set [1] is 28.4%; in data set [3], 58.2%; in data set [4] it was 44.4%; in data set [5], 30.4%. The “percentage survival relative to the missense, n = 3” value was 16.8% in data set [1], 8.3% in data set [2], 19.8% in data set [3] and 40.7% in data set [5].
With “siRNA Survivin: positive control siRNA, sense GAACUGGCCCUUCUUGGAGtt, antisense CUCCAAGAAGGGCCAGUUCtt (sense GAACUGGCCCUUCUUGGAGTT; antisense CUCCAAGAAGGGCCAGUUCTT; chemistry not given here) [reference compound]”, the “percentage survival relative to the missense, n = 1” value in data set [1] stood at 28.5%; in data set [2] it was 35.9%; in data set [3], 45.9%; in data set [4], 102%; in data set [5], 43.9%. Moreover, the “percentage survival relative to the missense, n = 2” value in data set [1] was 62.4%; in data set [3] it was 64.6%; in data set [4], 61.8%; in data set [5], 90.8%. Besides, the “percentage survival relative to the missense, n = 3” value in data set [1] stood at 67.3%; in data set [2] it was 75.9%; in data set [3], 76.4%; in data set [4], 91%; in data set [5] it was 85.7%.

The record behind these values is patent publication US20050019746A1, “Apoptosis-related kinase/GPCRs” (EiRx Therapeutics Limited, priority 2003, published 2005).
